Values of other authors in patent US20240060990A1, “SPATIAL SIGNALING NETWORKS FOR MULTIPLEXED DRUG RESPONSE MEASUREMENT AND MODELING” (Georgia Tech Research Corporation, priority 2022, published 2024).

Test system: PC-9 cell cultures
Conditions: PC-9 cells, combined with Osimertinib; cited from earlier work

Structure (SMILES): CC(C)Nc1cc(-c2c[nH]c(C(=O)N[C@H](CO)c3cccc(Cl)c3)c2)c(Cl)cn1 [VRT, VRT752271]
- cell apoptosis: enhanced

Structure (SMILES): C=CC(=O)N1CCC(C)(Nc2cccc(C(F)(F)F)c2)C1 (centres unmarked) [YAP/TEAD inhibitor, MYF-01-37]
- cell apoptosis: enhanced
